ChEMBL document CHEMBL4610055, “Discovery and optimization of novel pyridines as highly potent and selective glycogen synthase kinase 3 inhibitors” (Bioorg Med Chem Lett, 2020)

Tests used:
[1] = Inhibition of GSK3 (unknown origin) using CREB peptide as substrate; set-up: species or system Homo sapiens
[2] = Inhibition of GSK3 in CHO cells expressing insulin receptor assessed as activation of glycogen synthase measured after 30 mins in presence of glucose-6-phosphate by filter paper assay; assay type: cell-based; settings: Cricetulus griseus, 0.5 h
[3] = Activity in CHO cells expressing insulin receptor assessed as activation of glycogen synthase
[4] = Half life in ZDF rat; assay type: ADME; settings: in vivo
[5] = Half life in Beagle dog; assay type: ADME, Canis lupus familiaris; settings: in vivo
[6] = molecular target: Mitogen-activated protein kinase 8 (Homo sapiens) (UniProt P45983); test: Inhibition of wild-type human full length JNK1 (M1 to Q384 residues) expressed in mammalian expression system at 10 uM by Kinomescan method relative to control
Mitogen-activated protein kinase 8 (Homo sapiens), sequence (P45983 whole entry, the tested form may be a part): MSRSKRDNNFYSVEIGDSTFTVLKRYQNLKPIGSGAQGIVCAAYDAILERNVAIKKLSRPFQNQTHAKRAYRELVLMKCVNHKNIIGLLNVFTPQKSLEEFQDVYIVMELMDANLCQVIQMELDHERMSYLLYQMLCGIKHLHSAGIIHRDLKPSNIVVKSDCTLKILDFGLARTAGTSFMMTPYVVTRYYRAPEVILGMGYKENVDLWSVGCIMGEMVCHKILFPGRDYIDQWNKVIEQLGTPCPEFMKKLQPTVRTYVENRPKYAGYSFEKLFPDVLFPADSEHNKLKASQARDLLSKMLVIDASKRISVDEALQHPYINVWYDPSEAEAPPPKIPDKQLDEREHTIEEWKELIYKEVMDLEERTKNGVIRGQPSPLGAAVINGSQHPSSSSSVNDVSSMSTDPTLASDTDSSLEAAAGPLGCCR

[7] = molecular target: Glycogen synthase kinase-3 alpha (Homo sapiens) (UniProt P49840); test: Inhibition of wild-type human full length GSK3A (M1 to S483 residues) expressed in bacterial expression system at 10 uM by Kinomescan method relative to control
Glycogen synthase kinase-3 alpha (Homo sapiens), sequence (P49840 2-483 limits assumed): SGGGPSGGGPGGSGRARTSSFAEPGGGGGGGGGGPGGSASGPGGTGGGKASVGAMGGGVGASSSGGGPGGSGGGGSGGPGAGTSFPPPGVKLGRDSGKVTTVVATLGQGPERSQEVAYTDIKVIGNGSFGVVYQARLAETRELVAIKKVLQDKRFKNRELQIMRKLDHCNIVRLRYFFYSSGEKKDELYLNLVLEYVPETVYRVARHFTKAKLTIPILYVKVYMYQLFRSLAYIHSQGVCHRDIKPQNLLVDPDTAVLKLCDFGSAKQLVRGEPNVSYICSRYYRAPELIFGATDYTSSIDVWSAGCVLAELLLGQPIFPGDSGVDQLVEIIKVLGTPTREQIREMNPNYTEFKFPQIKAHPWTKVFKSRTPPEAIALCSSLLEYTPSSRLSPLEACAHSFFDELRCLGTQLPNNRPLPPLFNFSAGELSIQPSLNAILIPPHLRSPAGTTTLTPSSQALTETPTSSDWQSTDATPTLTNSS

[8] = molecular target: Mitogen-activated protein kinase 9 (Homo sapiens) (UniProt P45984); test: Inhibition of wild-type human full length JNK2 (M1 to Q382 residues) expressed in mammalian expression system at 10 uM by Kinomescan method relative to control
Mitogen-activated protein kinase 9 (Homo sapiens), sequence (P45984 whole entry, looked up, the tested form may be a part): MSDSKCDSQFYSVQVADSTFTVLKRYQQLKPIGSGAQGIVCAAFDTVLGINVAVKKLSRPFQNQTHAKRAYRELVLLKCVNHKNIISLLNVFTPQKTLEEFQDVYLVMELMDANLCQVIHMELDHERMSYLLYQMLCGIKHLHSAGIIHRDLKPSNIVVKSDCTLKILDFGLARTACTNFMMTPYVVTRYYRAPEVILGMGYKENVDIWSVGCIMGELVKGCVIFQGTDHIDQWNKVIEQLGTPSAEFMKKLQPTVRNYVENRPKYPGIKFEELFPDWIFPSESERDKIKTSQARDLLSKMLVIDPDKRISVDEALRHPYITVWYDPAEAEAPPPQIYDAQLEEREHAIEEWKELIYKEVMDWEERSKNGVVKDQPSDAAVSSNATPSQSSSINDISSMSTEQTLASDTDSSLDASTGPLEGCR

[9] = molecular target: Glycogen synthase kinase-3 beta (Homo sapiens) (UniProt P49841); test: Inhibition of wild-type human full length GSK3B (M1 to T433 residues) expressed in mammalian expression system at 10 uM by Kinomescan method relative to control
Glycogen synthase kinase-3 beta (Homo sapiens), sequence (P49841 whole entry, looked up, the tested form may be a part): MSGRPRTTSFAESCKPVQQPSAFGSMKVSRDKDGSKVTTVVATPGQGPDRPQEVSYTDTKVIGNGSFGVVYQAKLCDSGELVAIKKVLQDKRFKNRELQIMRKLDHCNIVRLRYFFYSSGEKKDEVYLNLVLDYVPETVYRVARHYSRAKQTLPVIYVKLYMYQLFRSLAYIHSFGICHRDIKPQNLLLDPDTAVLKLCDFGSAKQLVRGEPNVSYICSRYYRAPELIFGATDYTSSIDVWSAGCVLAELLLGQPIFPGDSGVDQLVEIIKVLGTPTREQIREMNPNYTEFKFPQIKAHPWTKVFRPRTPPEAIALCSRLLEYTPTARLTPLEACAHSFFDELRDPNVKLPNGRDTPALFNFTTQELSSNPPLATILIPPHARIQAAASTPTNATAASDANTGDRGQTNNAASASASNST

Rattus norvegicus = test: Antidiabetic activity in ZDF rat administered as single dose via oral gavage by OGTT; assay type: functional
[10] = molecular target: Mitogen-activated protein kinase 10 (Homo sapiens) (UniProt P53779); test: Inhibition of wild-type human partial length JNK3 (V28 to Q422 residues) expressed in mammalian expression system at 10 uM by Kinomescan method relative to control
Mitogen-activated protein kinase 10 (Homo sapiens), sequence (P53779 whole entry, the tested form may be a part): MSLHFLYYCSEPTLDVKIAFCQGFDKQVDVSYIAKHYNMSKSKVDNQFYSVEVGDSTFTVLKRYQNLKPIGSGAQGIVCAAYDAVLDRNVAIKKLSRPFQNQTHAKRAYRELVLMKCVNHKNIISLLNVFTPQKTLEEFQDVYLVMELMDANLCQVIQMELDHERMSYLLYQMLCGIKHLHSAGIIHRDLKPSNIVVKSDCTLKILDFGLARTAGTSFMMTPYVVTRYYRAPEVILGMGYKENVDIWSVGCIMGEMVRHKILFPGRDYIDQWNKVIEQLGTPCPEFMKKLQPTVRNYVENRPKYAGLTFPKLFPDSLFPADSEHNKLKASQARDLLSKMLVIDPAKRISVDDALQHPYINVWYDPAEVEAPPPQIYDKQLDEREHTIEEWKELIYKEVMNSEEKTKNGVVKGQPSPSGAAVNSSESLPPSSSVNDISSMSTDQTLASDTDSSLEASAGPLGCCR

[11] = Oral bioavailability in ZDF rat; assay type: ADME, organism-based; settings: in vivo
[12] = molecular target: Serine/threonine-protein kinase B-raf (Homo sapiens) (UniProt P15056); test: Inhibition of wild-type human partial length BRAF (S429 to E741 residues) expressed in mammalian expression system at 10 uM by Kinomescan method relative to control
Serine/threonine-protein kinase B-raf (Homo sapiens), sequence (P15056 whole entry, the tested form may be a part): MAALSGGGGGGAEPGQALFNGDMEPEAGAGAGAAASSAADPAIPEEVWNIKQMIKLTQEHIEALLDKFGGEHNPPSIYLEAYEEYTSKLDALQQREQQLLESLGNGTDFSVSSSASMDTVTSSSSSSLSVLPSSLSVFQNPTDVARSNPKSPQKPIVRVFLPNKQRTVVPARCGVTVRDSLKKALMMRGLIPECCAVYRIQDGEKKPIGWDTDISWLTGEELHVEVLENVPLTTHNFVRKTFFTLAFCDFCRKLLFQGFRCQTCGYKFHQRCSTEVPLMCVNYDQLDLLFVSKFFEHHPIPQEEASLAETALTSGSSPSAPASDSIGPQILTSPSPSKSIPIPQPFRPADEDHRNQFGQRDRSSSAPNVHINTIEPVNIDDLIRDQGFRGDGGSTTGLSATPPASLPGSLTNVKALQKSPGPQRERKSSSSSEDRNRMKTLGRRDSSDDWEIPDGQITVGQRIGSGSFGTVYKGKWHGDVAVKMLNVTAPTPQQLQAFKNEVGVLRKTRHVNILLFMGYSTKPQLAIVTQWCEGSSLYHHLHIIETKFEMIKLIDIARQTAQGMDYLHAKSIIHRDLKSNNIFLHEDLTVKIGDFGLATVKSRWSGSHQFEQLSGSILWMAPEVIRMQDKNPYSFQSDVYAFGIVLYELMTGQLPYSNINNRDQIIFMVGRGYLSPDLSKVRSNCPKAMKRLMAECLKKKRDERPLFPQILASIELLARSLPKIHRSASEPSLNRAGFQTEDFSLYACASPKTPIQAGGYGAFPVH

Structure (SMILES) | IC50 [1] | EC50 [2] | further results
CN1CCN(c2ccc(NCCNc3ccc([N+](=O)[O-])c(N)n3)nc2-c2ccoc2)C(=O)C1 | 3.7 µM | – | –
Nc1nc(NCCNc2ccc(NC(=O)CNCCO)c(-c3ccc(Cl)cc3Cl)n2)ccc1[N+](=O)[O-] | 0.012 µM | 1.6 µM | –
C[C@@H](CNc1ccc([N+](=O)[O-])c(N)n1)Nc1ccc(N2CCN(C)CC2=O)c(-c2ccc(Cl)cc2Cl)n1 | 0.036 µM | 0.31 µM | –
Nc1nc(NCCNc2ccc(N3CCN(CC(F)(F)F)CC3=O)c(-c3ccc(Cl)cc3Cl)n2)ccc1[N+](=O)[O-] | 0.018 µM | 1.8 µM | –
Nc1nc(NCCNc2ccc(N3CCOCC3=O)c(-c3ccc(Cl)cc3Cl)n2)ccc1[N+](=O)[O-] | 0.011 µM | 0.51 µM | –
CN1CCN(c2ccc(NCCNc3ccc([N+](=O)[O-])c(N)n3)nc2-c2ccc(Cl)cc2)C(=O)C1 | 0.044 µM | 0.76 µM | –
CN1CCN(c2ccc(NCCNc3ccc([N+](=O)[O-])c(N)n3)nc2-c2ccccc2Cl)C(=O)C1 | 0.029 µM | 1.35 µM | –
CCc1ccc(-c2nc(NCCNc3ccc([N+](=O)[O-])c(N)n3)ccc2N2CCN(C)CC2=O)cc1 | 0.052 µM | 0.29 µM | –
CN1CCN(c2ccc(NCCNc3ccc([N+](=O)[O-])c(N)n3)nc2-c2cccc(Cl)c2)C(=O)C1 | 0.074 µM | 3 µM | –
CN1CCN(c2ccc(NCCNc3ccc([N+](=O)[O-])c(N)n3)nc2-c2ccc(F)cc2F)C(=O)C1 | 0.069 µM | 1.08 µM | –
Nc1nc(NCCNc2ccc(N3CCCC3=O)c(-c3ccc(Cl)cc3Cl)n2)ccc1[N+](=O)[O-] | 0.005 µM | 0.53 µM | –
C[C@@H](CNc1ccc(N2CCN(C)CC2=O)c(-c2ccc(Cl)cc2Cl)n1)Nc1ccc([N+](=O)[O-])c(N)n1 | 0.066 µM | 1.05 µM | –
CN1CCN(c2ccc(N(C)CCNc3ccc([N+](=O)[O-])c(N)n3)nc2-c2ccc(Cl)cc2Cl)C(=O)C1 | 0.015 µM | 0.22 µM | –
C[C@H](CNc1ccc(N2CCN(C)CC2=O)c(-c2ccc(Cl)cc2Cl)n1)Nc1ccc([N+](=O)[O-])c(N)n1 | 1.01 µM | – | –
C[C@H](CNc1ccc([N+](=O)[O-])c(N)n1)Nc1ccc(N2CCN(C)CC2=O)c(-c2ccc(Cl)cc2Cl)n1 | 0.207 µM | – | –
CC(=O)N1CCN(c2ccc(NCCNc3ccc([N+](=O)[O-])c(N)n3)nc2-c2ccc(Cl)cc2Cl)C(=O)C1 | 0.013 µM | 1.4 µM | –
Cc1cnc(-c2cnc(NCCNc3ccc(C#N)cn3)nc2-c2ccc(Cl)cc2Cl)[nH]1 [LADUVIGLUSIB] | – | 0.77 µM | EC50 [3]: 0.77 µM
CN1CCN(c2ccc(NCCNc3ccc([N+](=O)[O-])c(N)n3)nc2-c2ccccc2)C(=O)C1 | 0.202 µM | – | –
Nc1nc(NCCNc2ccc(N3CCN(C4CC4)CC3=O)c(-c3ccc(Cl)cc3Cl)n2)ccc1[N+](=O)[O-] | 0.013 µM | 0.04 µM | –
CN1CCN(c2ccc(NCCNc3ccc([N+](=O)[O-])c(N)n3)nc2-c2ccc(Cl)cc2Cl)C(=O)C1 | 0.008 µM | 0.13 µM | half-life [4]: 3.42 h; half-life [5]: 2.72 h; inhibition [6]: 92.2%; inhibition [7]: 99.5%; inhibition [8]: 97.4%; inhibition [9]: 95.8%; ED50 (Rattus norvegicus): 10 mg/kg; inhibition [10]: 98.3%; bioavailability [11]: 30%; inhibition [12]: 91.8%
CN1CCN(c2ccc(NCCNc3ccc([N+](=O)[O-])c(N)n3)nc2-c2ccccc2C(F)(F)F)C(=O)C1 | 0.057 µM | 0.76 µM | –
Nc1nc(NCCNc2ccc(N3CCCCC3=O)c(-c3ccc(Cl)cc3Cl)n2)ccc1[N+](=O)[O-] | 0.013 µM | 0.07 µM | –
Nc1nc(NCCNc2ccc(N3CCNCC3=O)c(-c3ccc(Cl)cc3Cl)n2)ccc1[N+](=O)[O-] | 0.011 µM | 0.14 µM | –
